The values below come from US11179414B2, “Method for producing protease degradation composition” (LAIMU CORPORATION, priority 2018, dated 2021).

This assay deals with adult-derived normal human fibroblasts. The assay is described as follows: Collagen production promoting test (human collagen type 1 ELISA of supernatant). Conditions: final concentration 1 mg/mL; culture for 3 days; mean of 5 tests. It counts as cell-based. How it is done:
As the cells for test, adult-derived normal human fibroblasts bought from Kurabo Industries Ltd. were used.
As a cell growth medium, DMEM added with 10% FBS and […] mixed solution was used; and as a test medium, DMEM added with 1% FBS and 1% penicillin-streptomycin mixed solution was used.
Adult-derived normal human fibroblasts were sown and initiated in a cell growth medium inside a cell culture flask (Corning's T-75), and cultured in a moist environment at 37° C. in the presence of 5% CO2. During this, the medium was replaced every other day, and at the time when the culture reached 80% confluent growth, the cells were collected and used in the following tests.
The cultured fibroblasts were sown in a 96-well plate to be 5×10^3 cells/0.1 mL/well, and cultured therein at 37° C. in the presence of 5% CO2 for 1 day. Subsequently, the cell growth medium in each well was replaced with each test medium added with the composition 1 or L-ascorbic acid 2-glucoside, or with a test medium not added with them (control medium). […] Subsequently, the cells were cultured at 37° C. in the presence of 5% CO2 for 3 days, then the supernatant of the test medium in each well was collected, and using a human collagen-type 1 ELISA kit, the I-type collagen concentration in the supernatant was measured. […]

SMILES strings stand for the structures.

As to `O=C1O[C@H]([C@@H](O)CO)C(O)=C1O[C@H]1O[C@H](CO)[C@@H](O)[C@H](O)[C@H]1O` [L-ascorbic Acid 2-Glucoside, L-ascorbic acid 2-glucoside], the “Collagen Production Amount (I-type collagen concentration in supernatant)” value turned out to be 4.29 µg/mL.
